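How tested: cells in 96-well plates exposed to compound for 48 hours at five concentrations. TGI is the concentration that stops growth completely.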
Assays:
Assay in all cases: DTP human tumour cell line panel, 48 h
LOX IMVI melanoma = tested on: LOX IMVI melanoma
HCT-15 colon = tested on: HCT-15 colon
SF-268 CNS = tested on: SF-268 CNS
NCI-H460 lung = tested on: NCI-H460 lung
786-0 renal = tested on: 786-0 renal
HOP-62 NSCLC = tested on: HOP-62 NSCLC
MDA-MB-231 breast = tested on: MDA-MB-231 breast
NCI-H522 lung = tested on: NCI-H522 lung
COLO 205 colon = tested on: COLO 205 colon
NCI/ADR-RES ovarian = tested on: NCI/ADR-RES ovarian
MOLT-4 leukemia = tested on: MOLT-4 leukemia
RPMI-8226 leukemia = tested on: RPMI-8226 leukemia
SR leukemia = tested on: SR leukemia
HL-60(TB) leukemia = tested on: HL-60(TB) leukemia
ACHN renal = tested on: ACHN renal
EKVX NSCLC = tested on: EKVX NSCLC
MCF7 breast = tested on: MCF7 breast
OVCAR-4 ovarian = tested on: OVCAR-4 ovarian
KM12 colon = tested on: KM12 colon

Row | SMILES | TGI (LOX IMVI melanoma) [µM] | TGI (HCT-15 colon) [µM] | TGI (SF-268 CNS) [µM] | TGI (NCI-H460 lung) [µM] | TGI (786-0 renal) [µM] | TGI (HOP-62 NSCLC) [µM] | TGI (MDA-MB-231 breast) [µM] | TGI (NCI-H522 lung) [µM] | TGI (COLO 205 colon) [µM] | TGI (NCI/ADR-RES ovarian) [µM] | TGI (MOLT-4 leukemia) [µM] | TGI (RPMI-8226 leukemia) [µM] | TGI (SR leukemia) [µM] | TGI (HL-60(TB) leukemia) [µM] | TGI (ACHN renal) [µM] | TGI (EKVX NSCLC) [µM] | TGI (MCF7 breast) [µM] | TGI (OVCAR-4 ovarian) [µM] | TGI (KM12 colon) [µM]
1 | COC(OC)(c1ccccc1)C(I)I | 32.4 | 18.5 | 46.1 | 37.7 | 21.5 | > 58.3 | 36.4 | 6.98 | 24.2 | > 59.7 | > 49.8 | > 100 | > 45.7 | 20.4 | 31.9 | 16.9 | 47.4 | 27.4 | 40.1
2 | CCOC(=O)COc1c(OC)cc(C2C3=C(COC3=O)Oc3cc4c(cc32)OCO4)cc1OC (stereo not given) | > 100 | > 100 | > 100 | 49.4 | 15.5 | > 100 | > 100 | 3.14 | 4.88 | > 37.3 | 41.8 | 0.954 | 27.1 | 0.539 | > 45.8 | > 100 | > 100 | 24.9 | > 100
3 | COC1(OC)C2(Cl)C(Cl)=C(Cl)C1(Cl)C1COCC12 (stereo not given) | > 100 | > 100 | > 100 | > 100 | > 100 | > 100 | > 100 | > 100 | > 100 | > 100 | > 100 | > 100 | > 100 | > 100 | > 100 | > 100 | > 100 | > 100 | > 100
4 | COc1ccc(-n2c3c(c4c(CN(C)C)c(O)ccc42)C(=O)c2ccccc2C3=O)cc1 | 7 | 10.5 | 44.9 | 26.2 | 4.52 | 4.72 | 7.67 | 30.7 | 20.7 | 26.3 | > 100 | 4.88 | 6.84 | 19.5 | 3.9 | 25.4 | 24.9 | 15.9 | 10.7
5 | COc1ccc(CCc2ccc(O)c(C(=O)O)c2)cc1OC | > 100 | > 100 | > 100 | > 100 | > 100 | > 100 | > 100 | > 100 | > 100 | > 100 | > 100 | > 100 | > 100 | > 100 | > 100 | > 100 | > 100 | > 100 | > 100
